Assay results reported in paper doi:10.1101/208439v1 (biorxiv, 2017).

Molecular target: PRDM9 (Homo sapiens, UniProt Q9NQV7)
Details: read-out: DA3003-1 IC50; inhibitor

PRDM9, sequence (Q9NQV7 whole entry): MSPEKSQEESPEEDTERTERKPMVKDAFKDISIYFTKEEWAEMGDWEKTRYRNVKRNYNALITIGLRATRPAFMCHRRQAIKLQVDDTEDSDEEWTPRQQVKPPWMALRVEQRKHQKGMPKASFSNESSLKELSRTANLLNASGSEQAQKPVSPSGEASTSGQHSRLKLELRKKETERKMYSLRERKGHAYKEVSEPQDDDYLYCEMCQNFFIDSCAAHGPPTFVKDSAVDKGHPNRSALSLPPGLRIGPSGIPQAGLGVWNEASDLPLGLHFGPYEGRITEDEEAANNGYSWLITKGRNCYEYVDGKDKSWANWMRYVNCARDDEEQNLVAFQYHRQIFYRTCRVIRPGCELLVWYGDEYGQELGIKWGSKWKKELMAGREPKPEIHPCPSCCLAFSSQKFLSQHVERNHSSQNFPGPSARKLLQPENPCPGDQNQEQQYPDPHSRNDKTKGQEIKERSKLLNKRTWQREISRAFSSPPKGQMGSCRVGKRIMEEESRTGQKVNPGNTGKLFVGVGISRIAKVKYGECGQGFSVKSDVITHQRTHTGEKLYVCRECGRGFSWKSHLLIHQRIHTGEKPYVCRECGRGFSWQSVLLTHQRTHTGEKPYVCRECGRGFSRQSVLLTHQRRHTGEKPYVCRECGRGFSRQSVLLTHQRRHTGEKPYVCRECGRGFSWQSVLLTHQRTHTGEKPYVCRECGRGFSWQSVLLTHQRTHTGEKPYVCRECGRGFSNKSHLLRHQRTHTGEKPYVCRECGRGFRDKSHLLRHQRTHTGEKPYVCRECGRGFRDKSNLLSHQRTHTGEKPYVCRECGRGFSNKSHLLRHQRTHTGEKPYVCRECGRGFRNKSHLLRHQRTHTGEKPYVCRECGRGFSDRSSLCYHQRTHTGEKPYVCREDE

O=C1C(Cl)=C(NCCN2CCOCC2)C(=O)c2ncccc21 [DA3003-1]
IC50: 370 nM
